Test results reported in PubChem BioAssay AID2060889 (Molecular Pharmacology Branch, DTP, NCI, 2025).
pIC50: −log10 of the molar value.

Tested on: LG0567-F671-PDC complex spheroids viability
Assay: Anticancer human tumor LG0567-F671-PDC patient-derived lung adenocarcinoma cell line growth inhibition [RAS]
Conditions: for pIC50: curve of first compound; for viability, T/C: stronger effect = lower value
Outline: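 Multi-cell-type spheroids: tumor cells plus HUVEC endothelial cells and mesenchymal stem cells. RAS-pathway inhibitors were combined with targeted agents, each dosed in half-log steps down from clinical Cmax, or from 10 microM when Cmax was unknown.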
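Note: spheroids exposed to compound for seven days before readout.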
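Throughout, for pIC50: luminescence signal used as a proxy for viable cells.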

`Cc1nc(N2CCC3(CC2)COC(C)C3N)c(CO)nc1Sc1ccnc(N)c1Cl` (configuration not stated) + C#Cc1c(F)ccc2cc(O)cc(-c3ncc4c(N5CC6CCC(C5)N6)nc(OCC56CCCN5CC(F)C6)nc4c3F)c12 was tested, and the pIC50 (second compound 0.0316 µM) was 7.18, the pIC50 (second compound 0.1 µM) was > 7.50 and the pIC50 (second compound 0.316 µM) was > 7.50. For the same compound, the pIC50 (second compound 1 µM) was > 7.50, the pIC50 (second compound 3.16 µM) was > 7.50 and the pIC50 (second compound 10 µM) was > 7.50. It also gave a viability, T/C (second compound 0.0316 µM, first compound 0.0316 µM) of 63.3%, a viability, T/C (second compound 0.0316 µM, first compound 0.1 µM) of 43.5% and a viability, T/C (second compound 0.0316 µM, first compound 0.316 µM) of 26.2%. It also gave a viability, T/C (second compound 0.0316 µM, first compound 1 µM) of 19.9%, a viability, T/C (second compound 0.0316 µM, first compound 3.16 µM) of 15.2% and a viability, T/C (second compound 0.0316 µM, first compound 10 µM) of 13.1%. The viability, T/C (second compound 0.1 µM, first compound 0.0316 µM) was 46.1%, the viability, T/C (second compound 0.1 µM, first compound 0.1 µM) was 31.3% and the viability, T/C (second compound 0.1 µM, first compound 0.316 µM) was 21.6%. The viability, T/C (second compound 0.1 µM, first compound 1 µM) was 15.5%, the viability, T/C (second compound 0.1 µM, first compound 3.16 µM) was 12.7% and the viability, T/C (second compound 0.1 µM, first compound 10 µM) was 9.84%. It also gave a viability, T/C (second compound 0.316 µM, first compound 0.0316 µM) of 35.3%, a viability, T/C (second compound 0.316 µM, first compound 0.1 µM) of 20.9% and a viability, T/C (second compound 0.316 µM, first compound 0.316 µM) of 18.1%. The viability, T/C (second compound 0.316 µM, first compound 1 µM) was 10.4%, the viability, T/C (second compound 0.316 µM, first compound 3.16 µM) was 8.05% and the viability, T/C (second compound 0.316 µM, first compound 10 µM) was 7.7%. The viability, T/C (second compound 1 µM, first compound 0.0316 µM) was 21%, the viability, T/C (second compound 1 µM, first compound 0.1 µM) was 16.2% and the viability, T/C (second compound 1 µM, first compound 0.316 µM) was 10.6%. For the same compound, the viability, T/C (second compound 1 µM, first compound 1 µM) was 10.3%, the viability, T/C (second compound 1 µM, first compound 3.16 µM) was 4.69% and the viability, T/C (second compound 1 µM, first compound 10 µM) was 3.85%. For the same compound, the viability, T/C (second compound 3.16 µM, first compound 0.0316 µM) was 12.1%, the viability, T/C (second compound 3.16 µM, first compound 0.1 µM) was 8.68% and the viability, T/C (second compound 3.16 µM, first compound 0.316 µM) was 5.69%. For the same compound, the viability, T/C (second compound 3.16 µM, first compound 1 µM) was 4.95%, the viability, T/C (second compound 3.16 µM, first compound 3.16 µM) was 3.57% and the viability, T/C (second compound 3.16 µM, first compound 10 µM) was 2.94%. The viability, T/C (second compound 10 µM, first compound 0.0316 µM) was 7.2%, the viability, T/C (second compound 10 µM, first compound 0.1 µM) was 6.13% and the viability, T/C (second compound 10 µM, first compound 0.316 µM) was 3.88%. It also gave a viability, T/C (second compound 10 µM, first compound 1 µM) of 2.23%, a viability, T/C (second compound 10 µM, first compound 3.16 µM) of 2.98% and a viability, T/C (second compound 10 µM, first compound 10 µM) of 1.91%.
